Measured values: patent US10287277B2, “Fumagillol derivatives and polymorphs thereof” (SynDevRx, Inc., priority 2015, dated 2019)
Values belong to the compound of their own block, whether it stands above or below them.

Tests used:
[1] = system: SU-DHL-10 (Diffuse Large B-Cell Lymphoma); test: Single agent cell viability assay (CellTiter-Glo), 72 h continuous exposure; format: cell-based; conditions: Homo sapiens, SU-DHL10, SU-DHL-10 cells
Description: (§1) The half-maximal inhibitory concentration(s) (IC50) of Formula I as a single agent against a panel of human hematological tumor cell lines was investigated. All cell lines were grown in their respective proper growth media supplemented with 5-10% FBS and housed in an atmosphere of 5% CO2 at 37° C.
(§2) Cell Viability Assay—72 Hours Continuous Exposure Time
(§3) 1. 0 hr: Cells were plated in growth media in 96-well microtiter plates at a 200 μL volume. Cells were incubated for 24 hours at 37° C. in a humidified incubator.
(§4) 2. 24 hr: The test agent's drug doses were achieved using HP D300 Digital Dispenser. Briefly, the digital dispenser added test agent in a DMSO solvent at precise volumes to media containing wells. Control wells received equivolumes of DMSO that test agents wells received. Following drugging, cells were exposed at the concentrations and dilutions described in Table 20 for 72 hours at 37° C. in a humidified incubator.
(§5) 3. 72 hr: Following 72 hour exposure, 100 μl of a 1:1 mixture of sterile water and CellTiter-Glo® Reagent was added to each well. The plates are incubated for 60 minutes at room temperature. After incubation, luminescence was recorded using a luminometer. The results are shown below in Table 21 and in FIGS. 15A, 15B, 15C and 15D.
(§6) Data is expressed as the percent cell growth of the untreated (vehicle) control calculated from the luminescence signals. The surviving fraction of cells was determined by dividing the mean luminescence values of the test agents by the mean luminescence values of untreated control. The inhibitory concentration value for the test agent(s) and control was estimated using Prism 6 software (GraphPad Software, Inc.) by curve-fitting the data using the non-linear regression analysis.

BC-1 (B-Cell Lymphoma) = test: as above; format: cell-based; conditions: Homo sapiens, BC1, BC-1 cells
Description: as §1, §2, §3, §4, §5, §6

[2] = system: Jeko-1 (Mantle Cell Lymphoma); test: as above; format: cell-based; conditions: Homo sapiens, Jeko-1 cells
Description: as §1, §2, §3, §4, §5, §6

U266 (Myeloma) = test: as above; format: cell-based; conditions: Homo sapiens, U-266, U266 cells
Description: as §1, §2, §3, §4, §5, §6

[3] = Storage stability, 40° C., 75% RH; format: physicochemical; conditions: for Appearance / Impurity Compound 2 / Impurity Compound 4 / Impurity Compound 5 / Largest individual unknown impurity / Total Impurities / Water Content: 40° C., 75% RH
Description: (§7) As shown below, the compounds can remain >99% pure after being held at 25° C. and 60% relative humidity for six months. The compounds can remain >95% pure after being held at 40° C. and 75% relative humidity for six months.

[4] = Storage stability, 25° C., 60% RH; format: physicochemical; conditions: for Appearance / Impurity Compound 2 / Impurity Compound 4 / Impurity Compound 5 / Largest individual unknown impurity / Total Impurities / Water Content: 25° C., 60% RH
Description: as §7

[5] = Stability of salt forms versus free base (statement in words); conditions: comparison of free base, hemi-tartrate and benzenesulfonic acid salt

Compound: COc1cccc2c1C(=O)c1c(O)c3c(c(O)c1C2=O)C[C@@](O)(C(=O)CO)C[C@@H]3O[C@H]1C[C@H](N)[C@H](O)[C@H](C)O1 [Adriamycin, reference compound]
IC50 [1]: 0.00085 µM
IC50 (BC-1 (B-Cell Lymphoma)): 0.02 µM

Compound: CC(C)C[C@H](NC(=O)[C@H](Cc1ccccc1)NC(=O)c1cnccn1)B(O)O [Bortezomib, reference compound]
IC50 [2]: 0.4 µM
IC50 (U266 (Myeloma)): 0.0024 µM

Next, values leading:

Appearance ([3]; 0 Months): White powder,
Impurity Compound 2 ([3]; 0 Months): <0.1%
Impurity Compound 4 ([3]; 0 Months): <0.1%
Impurity Compound 5 ([3]; 0 Months): 0.1%
Largest individual unknown impurity ([3]; 0 Months): <0.1%
Total Impurities ([3]; 0 Months): 0.1%
Water Content ([3]; 0 Months): 0.41%
Appearance ([3]; 1 Month): White powder,
Impurity Compound 2 ([3]; 1 Month): 1.0%
Impurity Compound 5 ([3]; 1 Month): 0.1%
Largest individual unknown impurity ([3]; 1 Month): 0.2%
Total Impurities ([3]; 1 Month): 1.5%
Water Content ([3]; 1 Month): 1.54%
Appearance ([3]; 2 Months): White powder,
Impurity Compound 2 ([3]; 2 Months): 1.4%
Impurity Compound 4 ([3]; 2 Months): 0.3%
Impurity Compound 5 ([3]; 2 Months): 0.1%
Largest individual unknown impurity ([3]; 2 Months): 0.3%
Total Impurities ([3]; 2 Months): 2.4%
Water Content ([3]; 2 Months): 1.19%
Appearance ([3]; 3 Months): White powder,
Impurity Compound 2 ([3]; 3 Months): 1.6%
Impurity Compound 4 ([3]; 3 Months): 0.5%
Impurity Compound 5 ([3]; 3 Months): 0.2%
Largest individual unknown impurity ([3]; 3 Months): 0.4%
Total Impurities ([3]; 3 Months): 3.1%
Water Content ([3]; 3 Months): 2.57%
Appearance ([3]; 6 months): White powder,
Impurity Compound 2 ([3]; 6 months): 1.5%
Impurity Compound 4 ([3]; 6 months): 1.4%
Impurity Compound 5 ([3]; 6 months): 0.5%
Largest individual unknown impurity ([3]; 6 months): 0.3%
Total Impurities ([3]; 6 months): 4.2%
Water Content ([3]; 6 months): 3.19%
purity remaining after storage ([3]; held at 40° C. and 75% relative humidity for six months): > 95%
Appearance ([4]; 0 Months): White powder,
Impurity Compound 2 ([4]; 0 Months): <0.1%
Impurity Compound 4 ([4]; 0 Months): <0.1%
Impurity Compound 5 ([4]; 0 Months): 0.1%
Largest individual unknown impurity ([4]; 0 Months): <0.1%
Total Impurities ([4]; 0 Months): 0.1%
Water Content ([4]; 0 Months): 0.41%
Appearance ([4]; 1 Month): White powder,
Impurity Compound 2 ([4]; 1 Month): 0.3%
Impurity Compound 5 ([4]; 1 Month): 0.1%
Largest individual unknown impurity ([4]; 1 Month): <0.1%
Total Impurities ([4]; 1 Month): 0.5%
Water Content ([4]; 1 Month): 0.60%
Appearance ([4]; 2 Months): White powder,
Impurity Compound 2 ([4]; 2 Months): 0.4%
Impurity Compound 4 ([4]; 2 Months): 0.1%
Impurity Compound 5 ([4]; 2 Months): 0.1%
Largest individual unknown impurity ([4]; 2 Months): <0.1%
Total Impurities ([4]; 2 Months): 0.5%
Water Content ([4]; 2 Months): 0.57%
Appearance ([4]; 3 Months): White powder,
Impurity Compound 2 ([4]; 3 Months): 0.5%
Impurity Compound 4 ([4]; 3 Months): 0.1%
Impurity Compound 5 ([4]; 3 Months): 0.1%
Largest individual unknown impurity ([4]; 3 Months): <0.1%
Total Impurities ([4]; 3 Months): 0.7%
Water Content ([4]; 3 Months): 1.73%
Appearance ([4]; 6 months): White powder,
Impurity Compound 2 ([4]; 6 months): 0.6%
Impurity Compound 4 ([4]; 6 months): 0.1%
Impurity Compound 5 ([4]; 6 months): 0.1%
Largest individual unknown impurity ([4]; 6 months): <0.1%
Total Impurities ([4]; 6 months): 0.9%
Water Content ([4]; 6 months): 1.58%
purity remaining after storage ([4]; held at 25° C. and 60% relative humidity for six months): > 99%
Compound: CO[C@@H]1[C@H](OC(=O)N[C@H]2CC[C@H](N)CC2)CC[C@]2(CO2)[C@H]1[C@@]1(C)O[C@@H]1CC=C(C)C.O=S(=O)(O)c1ccccc1 [Form II of Formula I, fumagill-6-yl N-(trans-4-aminocyclohexyl)carbamate benzenesulfonic acid salt]

IC50 [2]: 30.7 µM
IC50 (U266 (Myeloma)): 54.6 µM
IC50 [1]: 6.2 µM
IC50 (BC-1 (B-Cell Lymphoma)): 20.4 µM
Compound: COC1C(OC(=O)N[C@H]2CC[C@H](N)CC2)CC[C@]2(CO2)C1C1(C)O[C@@H]1CC=C(C)C (stereo partly drawn) [Formula I, (1R,4r)-4-(((((3R,4S,5S,6R)-5-methoxy-4-((2R,3R)-2-methyl-3-(3-methylbut-2-en-1-yl)oxiran-2-yl)-1-oxaspiro[2.5]octan-6-yl)oxy)carbonyl)amino)cyclohexan-1-aminium benzenesulfonate]

stability (in words) [5]: inherently unstable
Compound: COC1C(OC(=O)N[C@H]2CC[C@H](N)CC2)CCC2(CO2)C1C1(C)OC1CC=C(C)C (stereo partly drawn) [free base form of Formula I, fumagill-6-yl N-(trans-4-aminocyclohexyl)carbamate]
